assay: gradient 5% acetonitrile 3 min, to 50% in 2 min, to 85% in 15 min, held 3 min, 100 µL/min; settings: column: Zorbax Extend-C18 2.1 x 50 mm; eluents: water / acetonitrile, 0.1% formic acid
Outline: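 Each retention time is based on an adduct peak selected computationally and verified by manual inspection. Measurements used HPLC–quadrupole time-of-flight mass spectrometry in positive and negative ionization mode on mixtures of ~100 pure standards. Chromatography ran on a Zorbax Extend-C18 column (2.1 × 50 mm, 1.8 μm) at 100 μL/min with water and acetonitrile, each containing 0.1% formic acid, and dead and dwell volumes of 40 μL and 900 μL.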

Row | SMILES | RP-LC retention time [s]
1 | O=C(Cn1ccn2nc(-c3ccc(F)cc3)c(CO)c2c1=O)Nc1ccc2c(c1)OCCO2 | 786
2 | CC(C)C(NC(=O)c1ccco1)C(=O)NCc1nn(C)c2ccccc12 (stereo not drawn) | 677
3 | CCn1c(C(=O)NCCCN2CCCC(C)C2)cc2cc(S(=O)(=O)N(C)C)ccc21 (stereo not drawn) | 677
4 | COC(=O)c1cccc(Nc2c(-c3ccccc3)nc3cnccn23)c1 | 834
5 | COc1cc(-c2noc(CN3C(=O)COc4cc(Cl)ccc43)n2)cc(OC)c1OC | 1020
6 | Cc1ccc(NC(=O)Cn2nc3c(Oc4ccc(C(C)C)cc4)nccn3c2=O)c(C)c1 | 1050
7 | COc1ccc(C2(C(=O)N3CCC(c4nc(CCOCc5ccccc5)no4)C3)CC2)cc1 (stereo not drawn) | 958
8 | O=C(Nc1cccc(-c2nnc3n2CCCC3)c1)c1nccc2ccccc12 | 769
9 | O=C([C@@H]1C[C@H](F)CN1S(=O)(=O)c1ccccc1)N1CCOCC1 | 643
10 | CCCCN1CCN(Cc2nc(-c3ccc(N4CCOCC4)nc3)no2)CC1 | 587
11 | Cc1ccc(-n2cc(C(=O)N3CCC(C(N)=O)CC3)nn2)cc1 | 641
12 | COc1cccc(S(=O)(=O)N2CCC(Cc3nncn3C)C2)c1 (stereo not drawn) | 630
13 | COc1ccc(-c2noc(C3CCCN3C(=O)c3cccnc3SC)n2)cc1 (stereo not drawn) | 907
14 | COc1cccc(-c2ccc(=O)n(CCc3nc(-c4cc(OC)cc(OC)c4)no3)n2)c1 | 955
15 | COCC(C)(O)CNC(=O)c1cn(C)nc1OC (stereo not drawn) | 561
16 | Cc1ccc(C)c(NC(=O)Cn2nc3cc(-c4ccccc4)nc(C)n3c2=O)c1 | 961
17 | O=C(c1cnn2c(-c3ccc4c(c3)OCO4)ccnc12)N1CCN(Cc2ccc3c(c2)OCO3)CC1 | 648
18 | Cc1cccc(C)c1Nc1c(-c2ccc(N(C)C)cc2)nc2ncccn12 | 747
19 | COCCn1cc2c3c(cccc31)CN(C(=O)Nc1ccccc1C(F)(F)F)CC2 | 981
20 | COCCNC(=O)NC1CCN(c2nc3cccnc3n(Cc3ccc(C)cc3)c2=O)CC1 | 882
21 | COc1ccc(CNC(=O)C2CC(=O)N(c3n[nH]c4cccc(F)c34)C2)cc1OC (stereo not drawn) | 661
22 | Cc1cc([N+](=O)[O-])nn1CC(=O)NCc1cccs1 | 572

Row | SMILES | RP-LC retention time [s]
23 | CCn1nccc1-c1cccc(-c2noc(-c3ccc(F)cc3F)n2)c1 | 1270
24 | Cc1sc2ccn(C)c(=O)c2c1C(=O)NC1CCCCC1 | 716
25 | CC(=O)N1CCc2cc(C)c(S(=O)(=O)Nc3cccc(F)c3)cc21 | 731
26 | COc1ccc(-c2cc(=O)n(CC(=O)Nc3cccc4nsnc34)cn2)cc1 | 748
27 | Cc1cc(C)nc(Nc2nc(CC(=O)N3CCN(C4CCCCC4)CC3)cs2)n1 | 558
28 | Cc1ccc(NC(=O)C2CCCN(c3ncnc4c3nc3n4CCCCC3)C2)nc1 (stereo not drawn) | 699
29 | CCOC(=O)c1c(S(=O)(=O)N2CCC(C(=O)Nc3cc(C)cc(C)c3)CC2)c(C)n(C)c1C | 942
30 | Cc1ccc(-n2ccc(=O)c(-c3nc(-c4ccc(F)c(Br)c4)no3)n2)cc1C | 1120
31 | COc1ccc(-c2ncc3c(n2)CCN(S(=O)(=O)c2ccc(F)c(Cl)c2)C3)cc1 | 1130
32 | COc1ccc(NC(=O)N2CCC(c3nc(C(=O)N4CCOCC4)c(C)o3)CC2)cc1 | 660
33 | CC(C)c1ccc(NC(=O)C2CCN(C(=O)c3ncn4c3COC(c3ccc(F)cc3)C4)CC2)cc1 (stereo not drawn) | 949
34 | CCS(=O)(=O)c1ccc2c(c1)N(Cc1nc(-c3ccc(C)cc3)no1)C(=O)CO2 | 945
35 | O=C(Cn1cnc2nc(N3CCCC(C(=O)NC4CC4)C3)sc2c1=O)NCc1ccc(F)cc1 (stereo not drawn) | 669
36 | Cc1cc(NC(=O)CSc2nnc(CNC(=O)c3c(F)cccc3Cl)o2)no1 | 657
37 | COc1ccc(-c2noc(C3CC(=O)N(c4ccc(C)c(F)c4)C3)n2)cc1OC (stereo not drawn) | 984
38 | Cc1nc(-c2ccc(F)cc2)sc1C(=O)N1CCC(CC(=O)N(C)Cc2ccco2)CC1 | 890
39 | Cc1ccn2cc(-c3ccc(NC(=O)c4ccccc4I)cc3)nc2n1 | 656
40 | CCOC(=O)c1cnc(N2CCN(c3ccc(OC)cc3)CC2)c2ccccc12 | 1080
41 | CCN1CCn2c(nc3cc(C(=O)NCc4ccc5c(c4)OCO5)ccc32)C1=O | 660
42 | Cc1ccc(S(=O)(=O)N2CCC(C)CC2)cc1-c1nnc(-c2ccc(F)cc2)o1 | 1220
43 | CC(=O)N1CCc2ccccc2C1C(=O)NCc1cc(F)ccc1F (stereo not drawn) | 648
44 | O=C(Nc1ccc(Cl)cc1)C1CCCN(S(=O)(=O)Cc2ccccc2)C1 (stereo not drawn) | 976

Row | SMILES | RP-LC retention time [s]
45 | COc1cccc(-c2nc3sc(C(N)=O)c(C)n3c2NC(C)(C)C)c1 | 743
46 | Cc1cc(C)n2nc(-c3ccccc3)c(C)c2n1 | 906
47 | O=C(c1ccccn1)N1CCCCC1c1nc(-c2cnccn2)no1 (stereo not drawn) | 637
48 | CCOc1ccc2ncc(S(=O)(=O)c3ccc(C)c(C)c3)c(N3CCN(C)CC3)c2c1 | 658
49 | Cc1c(-c2noc(-c3ccccc3)n2)nnn1-c1ccccc1 | 1060
50 | CSCc1csc(NC(=O)NCc2ccc(F)cc2)n1 | 754
51 | Cc1cc(-c2nnc(-c3ccco3)o2)c(C)n1CC(=O)NCc1ccccc1 | 826
52 | c1ccc2c(CCNc3ncnc4nc[nH]c34)c[nH]c2c1 | 577
53 | O=C(c1c2c(nc3ccccc13)C(=O)N(C1CCCCC1)C2)N1CCN(c2ccccn2)CC1 | 643
54 | CCOC(=O)Cc1nnc(-c2ccc(Br)cc2)o1 | 903
55 | Cc1ccc(C(=O)N2C[C@@H]3C[C@H](NC(=O)c4ccccc4)[C@H]2C3)cc1F | 811
56 | COc1ccc(CNC(=O)c2cc3c(-c4cccs4)nn(-c4ccccc4)c3n2C)cc1 | 1120
57 | COc1ccc(-c2ccnc3nc(-c4ccccc4OC)nn23)c(F)c1 | 872
58 | O=C(c1ccc(CS(=O)c2ccccc2)o1)N1CCN(c2ccccn2)CC1 (stereo not drawn) | 560
59 | O=C(Nc1cc(F)ccc1F)C1CCCN(c2nc3ccccc3nc2C(F)(F)F)C1 (stereo not drawn) | 1270
60 | CCOc1cc(=O)n2c(c1C(=O)Nc1ccc(Cl)cc1F)CCCC2 | 806
61 | O=C(Nc1ccc(F)c(Cl)c1)C1CCCN(S(=O)(=O)c2c[nH]c(C(=O)N3CCCC3)c2)C1 (stereo not drawn) | 876
62 | CC(C)Cn1cc(S(=O)(=O)N2CCSCC2)c2cccnc21 | 969
63 | CCNC(=O)Nc1ccc2c(c1)CN(S(=O)(=O)Cc1ccccc1)CCO2 | 754
64 | CCOC(=O)c1cnc2c(-c3ccc(F)cc3)c(COC)nn2c1N | 981
65 | CCNc1cc(C)nc(N2CCN(C(=O)c3cccc(Br)c3)CC2)n1 | 775
66 | Cc1noc(C)c1C(=O)N1CCCC1c1ccccc1Cl (stereo not drawn) | 838

Row | SMILES | RP-LC retention time [s]
67 | O=S(=O)(c1cccn2c(SCc3ccc(F)cc3)nnc12)N1CCCC1 | 829
68 | CCCc1noc(-c2ccc(-n3ncc(C(=O)NC4CCCC4)c3C)nc2)n1 | 1030
69 | COC(=O)c1ccc2c(=O)n(CCc3ccccc3)c(N3CCCCCC3)nc2c1 | 1300
70 | CC(O)(CCc1ccccc1)CNC(=O)C(=O)NCCC1=CCCCC1 (stereo not drawn) | 936
71 | Cc1ccc(NC(=O)Cn2nc(N(C)C)c3ccccc3c2=O)cc1 | 857
72 | Cc1cc(C)nc(N2CCN(c3ccc(F)cc3)CC2)n1 | 876
73 | CCOc1ccc(-c2ccc(=O)n(CCc3nc(-c4cccc(F)c4)no3)n2)cc1 | 1040
74 | CCN1C(=O)COc2ccc(-c3noc(CNS(=O)(=O)c4ccc(F)cc4)n3)cc21 | 860
75 | O=C(Nc1cnc(N2CCCC2)nc1)c1ccccc1Br | 717
76 | CCOc1ccc(NC(=O)CN2CCN(Cc3ccc(C)cc3)C(=O)C2=O)cc1 | 799
77 | Cc1ccccc1NC(=O)c1c(NC(=O)CCC(=O)O)sc2c1CCCC2 | 939
78 | O=C(c1csc(S(=O)(=O)N2CCC(C(=O)N3CCCCCC3)CC2)c1)N1CCCCCC1 | 876
79 | Cn1nc(-c2nnc(-c3ccccc3)o2)c2c1CCN(S(=O)(=O)c1ccccc1Cl)C2 | 938
80 | COc1ccc(Cl)cc1S(=O)(=O)N1CCCC(C(=O)Nc2ccccc2)C1 (stereo not drawn) | 967
81 | CCCn1nccc1-c1csc(S(=O)(=O)NC(C)(C)CC)c1 | 975
82 | Cc1ccc(C(=O)N(CCCN)[C@@H](c2nc3cc(Cl)ccc3c(=O)n2Cc2ccccc2)C(C)C)cc1 | 990
83 | O=C(Cn1c(=O)c(S(=O)(=O)c2ccccc2)cc2ccccc21)NCc1ccccc1 | 858
84 | COc1cc(NC(=O)NC(C(=O)N2CCc3ccccc32)C(C)C)cc(OC)c1 (stereo not drawn) | 982
85 | CCN(C(=O)C1CCN(C(=O)c2cccc(F)c2)CC1)C1CCCCC1 | 855
86 | O=C(Cc1nnc(-c2cccc(F)c2)o1)N1CCC2(CC1)OCCO2 | 698
87 | Cc1cccc(-c2nc(-c3cccc(-c4ccn[nH]4)c3)no2)c1 | 1100
88 | Cc1cccc(S(=O)(=O)N2CCC(c3cc(N)on3)CC2)c1 | 615
